Laboratory results published in patent US5068334A, “Pharmaceutical compositions containing quinolin-2,5-diones, new quinolin-2,5-diones and processes for the preparation thereof” (Karl Thomae GmbH, priority 1988, dated 1991).
Where two headings read alike, the source gives them in different places.

Assays:
[1] = tested on: heat-induced pain in mice; experiment: effect on heat-induced pain in mice (CHEN and BECKMAN); type: in vivo; details: Mus musculus, po; male mice, oesophageal tube, 1% methylcellulose; read-out: ED^100 (dosage which doubled the reaction time)
Protocol: 2. The effect on heat-induced pain in mice was investigated using the method of CHEN and BECKMAN (Science 113, 631 (1951). Male mice with an average weight of 20 g were given the test substances as a trituration in 1% methylcellulose (0.1 ml/10 g of animal by oesophageal tube. From the lengthening of the individual reaction time observed after various doses, the ED^100 was calculated by linear regression analysis as the dosage which doubled the reaction time.

[2] = tested on: pain of inflammation in rats; experiment: effect on the pain of inflammation in rats (RANDALL and SELITTO); type: in vivo, rat; details: sc, male rats, oesophageal tube, 1% methylcellulose, after subcutaneous yeast
Protocol: 1. The effect on the pain of inflammation in rats was tested using the method of RANDALL and SELITTO (Arch. int. Pharmacodyn. 111, 409 (1957)). The test substances were administered to male rats weighing between 100 and 130 g as a trituration in 1% methylcellulose (1.0 ml/100 g of animal) 90 or 135 minutes after subcutaneous administration of yeast by oesophageal tube. From the pain threshold measured 90 or 45 minutes after administration of the various doses, the ED^50 was determined by linear regression analysis as the dosage which raised the pain threshold by 50%. The following

[3] = tested on: mechanically induced pain; experiment: effect on mechanically induced pain, tail clamp method (HAFFNER); type: in vivo; details: Mus musculus, po, 0.5 h, male mice, oesophageal tube, 1% methylcellulose, 30 minute intervals, read-out: ED^50 (percentage of animals which showed no pain-reaction)
[4] = tested on: body temperature of normothermic rats; experiment: effect on body temperature of normothermic rats; type: in vivo; details: Rattus norvegicus, po, oesophageal tube, 1% methylcellulose, rectal temperature, read-out: ED^-1.5° C. (dosage which lowered the body temperature by 1.5° C.)
Protocol: 4. The effect on body temperature was investigated on normothermic rats weighing between 120 and 140 g. The test substances were administered by oesophageal tube as a trituration in 1% methylcellulose (1.0 ml/100 g of animal). From the lowering of rectal temperature observed after various dosages, the ED^-1.5° C. was calculated by linear regression analysis as the dosage which lowered the body temperature by 1.5° C.

[5] = acute toxicity in mice; details: in vivo, po; mouse, both sexes, oesophageal tube, death within 14 days; read-out: LD^50 Mouse
Protocol: (§1) 5. The acute toxicity was determined in mice or rats of both sexes with an average weight of 20 g. The test substances were administered by oesophageal tube as a trituration in 1% methylcellulose (0.2 ml/10 g of animal). Wherever possible the LD50 was calculated according to LITCHFIELD and WILCOXON (J. Pharmacol. exp. Therap. 96, 99 (1949)) from the percentage of animals which died within 14 days after receiving various doses.

[6] = acute toxicity in rats; details: in vivo, po; rat, both sexes, oesophageal tube, death within 14 days
Protocol: as §1

[7] = 0.75 h, pain threshold 45 minutes after administration, read-out: ED^50 after 45 minutes (dosage which raised the pain threshold by 50%)
[8] = 1.5 h, pain threshold 90 minutes after administration, read-out: ED^50 after 90 minutes (dosage which raised the pain threshold by 50%)

SMILES | ED100 [1] | ED50 [2, 7] | ED50 [2, 8] | ED50 [3] | ED (-1.5 degC) [4] | LD50 at 336 h [5] | LD50 at 336 h [6]
CCN1C(=O)CCC2=C1CCCC2=O [Substance I, 1-ethyl-3,4,7,8-tetrahydro-2,5(1H,6H)-quinolinedione] | 70 mg/kg | 13 mg/kg | 16 mg/kg | 55 mg/kg | 22 mg/kg | – | –
Cc1cc2c([nH]c1=O)CCCC2=O [Substance E, 3-methyl-7,8-dihydro-2,5(1H,6H)-quinolinedione] | 135 mg/kg | 31 mg/kg | 36 mg/kg | 102 mg/kg | 34 mg/kg | 825 mg/kg | –
Cc1cc2c(n(C)c1=O)CCCC2=O [Substance F, 1,3-dimethyl-7,8-dihydro-2,5(1H,6H)-quinolinedione] | 109 mg/kg | 12.5 mg/kg | 12.1 mg/kg | 86 mg/kg | 36 mg/kg | 296 mg/kg | 396 mg/kg
CCCCn1c2c(c(C)cc1=O)C(=O)CCC2 [Substance H, 1-n-butyl-4-methyl-7,8-dihydro-2,5(1H,6H)-quinolinedione] | 101 mg/kg | – | 19.1 mg/kg | 50 mg/kg | 36 mg/kg | – | –
CC1CC2=C(CCCC2=O)NC1=O (stereo not drawn) [Substance B, 3-methyl-3,4,7,8-tetrahydro-2,5(1H,6H)-quinolinedione] | 155 mg/kg | 37 mg/kg | 39 mg/kg | 100 mg/kg | 35 mg/kg | 1220 mg/kg | 659 mg/kg
CCn1c2c(c(C)cc1=O)C(=O)CCC2 [Substance G, 1-ethyl-4-methyl-7,8-dihydro-2,5(1H,6H)-quinolinedione] | 59 mg/kg | 5.1 mg/kg | 5.9 mg/kg | 26 mg/kg | 11 mg/kg | – | –
CN1C(=O)CCC2=C1CCCC2=O [Substance C, 1-methyl-3,4,7,8-tetrahydro-2,5(1H,6H)-quinolinedione] | 99 mg/kg | 15 mg/kg | 21 mg/kg | 129 mg/kg | 26 mg/kg | 985 mg/kg | 748 mg/kg
Cc1cc(=O)[nH]c2c1C(=O)CCC2 [Substance D, 4-methyl-7,8-dihydro-2,5(1H,6H)-quinolinedione] | 98 mg/kg | 21 mg/kg | 34 mg/kg | 129 mg/kg | 25 mg/kg | – | 1370 mg/kg
Cn1c2c(ccc1=O)C(=O)CCC2 [Substance A, 1-methyl-7,8-dihydro-2,5(1H,6H)-quinolinedione] | 71 mg/kg | 8.7 mg/kg | 8.1 mg/kg | 80 mg/kg | 29 mg/kg | 767 mg/kg | 489 mg/kg
